Test results: patent publication US20250170127A1, “RE-SENSITIZING MULTIDRUG-RESISTANT (MDR) GRAM-NEGATIVE BACTERIA TO COLISTIN USING IONOPHORES” (The Regents of the University of Colorado, a body corporate, priority 2022, published 2025)

Key:
E. coli AR-0493 [1] = assay: MIC, CLSI broth microdilution, substance alone; format: cell-based
Method: A MDR E. coli strain AR-0493 (a.k.a., ATCC BAA-3170) was obtained from the CDC and FDA Antibiotic Resistance Bank and used for the initial screen. […] Considering the difficulties on the discovery of novel antimicrobial reagents against Gram-negative bacteria, we chose to screen the fragment-based library of 3,200 compounds from TimTec (Tampa, FL). […] The screen used a modified broth microdilution assay.
These 10 compounds were tested for their MICs and minimum re-sensitizing concentrations (MRCs) in the presence colistin at 2 μg/mL in E. coli AR-0493. […] To evaluate their toxicity in mammalian cells, the present inventors treated human epithelial adenocarcinoma HeLa cells with each compound at a wide range of concentrations. […]
(§1) General Methods. MDR strains E. coli AR-0493, AR-0346, and AR-0538, Salmonella Enteritidis AR-0496, Salmonella Typhimurium AR-0635, K. pneumoniae AR-0497, A. baumannii AR-0300 and AR-0310 were all obtained from the CDC & FDA Antibiotic Resistance Isolate Bank. E. coli K-12 was a gift from the Copley lab (Department of MCD Biology, University of Colorado Boulder). HeLa cells were purchased from the ATCC. All bacterial strains were grown on trypticase soy agar supplemented with 5% sheep blood (BAP). Bacteria were then cultured in Luria-Bertani (LB) medium at 35° C. until they achieve the log phase before screening or antimicrobial testing using CAMHB media. MIC, MRC, and checkerboard analyses and mammalian growth inhibition analyses in Hela cells were performed as described previously. More details are given in Supporting information.

HeLa cells = assay: in vitro; format: cell-based, human
Method: These 10 compounds were tested for their MICs and minimum re-sensitizing concentrations (MRCs) in the presence colistin at 2 μg/mL in E. coli AR-0493. […] To evaluate their toxicity in mammalian cells, the present inventors treated human epithelial adenocarcinoma HeLa cells with each compound at a wide range of concentrations.
(§2) To evaluate the mammalian toxicity of these analogs, Applicants tested them in cell viability assay using human cervical adenocarcinoma HeLa cells. Their respective half maximal growth inhibition concentration (GI50) was calculated using KaleidaGraph. The selectivity index (SI) for each compound was also calculated as the ratio of their GI50 and MRC. […] Therefore, Applicants selected two bisanilino analogs, 7l and 7m, that bear chlorines at the meta- and para-positions, respectively, of the phenyl groups for further characterization studies. […]. […] Their mammalian toxicities were also evaluated, and SIs calculated. […] Applicants we next explored the scope of analogs 71 and 7m their colistin-potentiating activity in 8 different MDR Gram negative bacteria with diverse genetic backgrounds and resistance mechanisms (Table 7). All strains were obtained from CDC and FDA Antibiotic Resistance Bank. For example, E. coli AR-0493 and K. pneumoniae AR-0497 carry the plasmid that contains the most prevalent mcr-1 gene. E. coli AR-0538, Salmonella Typhimurium AR-0539 and AR-0635 contain the mcr-2, 3, and 4 genes, respectively. These genes encode the phosphoethanolamine transferase, which was originated form the chromosome of A. baumannii, such as AR-0310. […]. A. baumannii AR-0310 appears more sensitive to these two compounds and the MICs of colistin was reduced to 0.25 μg/mL.
as §1

mitochondria = details: previously reported; in vitro and in mice; cited from earlier work
E. coli AR-0493 [2] = assay: Minimum re-sensitizing concentration (MRC) in the presence of colistin; format: cell-based; details: in the presence of 2 μg/mL colistin, E. coli AR-0493
Method: These 10 compounds were tested for their MICs and minimum re-sensitizing concentrations (MRCs) in the presence colistin at 2 μg/mL in E. coli AR-0493.
The present inventors further conducted MRC screens of selected compounds from groups 2-5 in AR-0493. Compound were tested against AR-0493 with compound X+2 μg/mL Colistin.
All compounds were tested for their respective minimum resensitizing concentrations (MRCs) for colistin against E. coli. AR0493, a MDR strain from CDC and FDA Antibiotic Resistance Bank. […] For the symmetrical bisanilino series, 7a-p, electron-donating alkyl and alkoxy groups (entries 7a-g, Table 5) at various positions of the phenyl rings were investigated. […] Three asymmetric bisanilino analogs (7q-s, Table 5) were synthesized based on the SARs of the monoanilino analogs 8a-p (vide infra).
as §1

P. aeruginosa AR-0257 = assay: Colistin MIC in the absence or presence of RMA compound; format: cell-based; details: for fold reduction of colistin MIC: 1 μg/mL of compound; for Colistin MIC (+ compound): in the presence of 1 μg/mL of compound indicated
Method: as §2

P. aeruginosa AR-0239 = assay: as above; format: cell-based; details: for fold reduction of colistin MIC: 1 μg/mL of compound; for Colistin MIC (+ compound): in the presence of 1 μg/mL of compound indicated
Method: as §2

[3] = test system: Salmonella Typhimurium AR-0539; assay: as above; format: cell-based; details: for Colistin MIC (+ compound): in the presence of 1 μg/mL of compound indicated, S. Typhimurium AR-0539
Method: as §2

E. coli AR-0538 = assay: as above; format: cell-based; details: for Colistin MIC: colistin alone, E. coli AR-0538, mcr-2; for Colistin MIC (+ compound): in the presence of 1 μg/mL of compound indicated, E. coli AR-0538
From the text: (§3) To investigate the scope of the colistin-potentiation effect of compound 3, the present inventors screened a panel of MDR Gram-negative bacteria obtained from the CDC and FDA Antibiotic Resistance Bank. These include a variety of Enterobacteriaceae spp., such as E. coli AR-0346 and AR-0538, K. pneumoniae AR-0497, Salmonella Enteritidis AR-0496, and Salmonella Typhimurium AR-0635. These strains all express the mcr genes (e.g., mcr-1, mcr-2, and mcr-4) and are resistant to colistin with its MICs of 8-16 μg/mL (Table 2). […] The only exception is Salmonella Typhimurium AR-0635, which expresses mcr-4 gene. […]. […]. Furthermore, the present inventors also tested the activity of colistin in the presence or absence of 1 μg/mL compound 3 in a wild-type E. coli K-12. […] The MICs of compound 3 in all these strains were >64 μg/mL, the highest concentration tested.
as §2, §1

K. pneumoniae AR-0497 = assay: as above; format: cell-based; details: for Colistin MIC: colistin alone, K. pneumoniae AR-0497, mcr-1; for Colistin MIC (+ compound): in the presence of 1 μg/mL of compound indicated, K. pneumoniae AR-0497
From the text: as §3, §2, §1

E. coli AR-0493 [4] = assay: as above; format: cell-based; details: for Colistin MIC: colistin alone, E. coli AR-0493, mcr-1; for Colistin MIC (+ compound): in the presence of 1 μg/mL of compound indicated, E. coli AR-0493
From the text: as §3, §2, §1

A. baumannii AR-0310 = assay: as above; format: cell-based; details: for Colistin MIC: colistin alone; for Colistin MIC (+ compound): in the presence of 1 μg/mL of compound indicated
From the text: as §3, §2, §1

[5] = test system: Salmonella Typhimurium AR-0635; assay: as above; format: cell-based; details: for Colistin MIC: colistin alone; for Colistin MIC (+ compound): in the presence of 1 μg/mL of compound indicated, S. Typhimurium AR-0635
From the text: as §3, §2, §1

[6] = test system: MDR Gram-negative bacteria; assay: MICs across a panel of MDR Gram-negative bacteria (summary statements); format: cell-based; details: colistin alone
From the text: as §3, §2, §1

E. coli AR-0346 = assay: Colistin MIC in the absence or presence of RMA compound; format: cell-based; details: colistin alone; E. coli AR-0346, mcr-1
From the text: as §3, §1

E. coli K-12 = assay: as above; format: cell-based; details: colistin alone; wild-type E. coli K-12
From the text: as §3, §1

A. baumannii AR-0300 = assay: as above; format: cell-based; details: colistin alone
From the text: as §3, §1

[7] = test system: Salmonella Enteritidis AR-0496; assay: as above; format: cell-based; details: colistin alone; Salmonella Enteritidis AR-0496, mcr-1
From the text: as §3, §1

P. aeruginosa AR-0768 = assay: as above; format: cell-based; details: colistin alone
From the text: as §3

E. coli AR-0349 = assay: MICs of a panel of 9 antibiotics with and without compound 3; format: cell-based

Molecule: FC(F)(F)Oc1ccc(Nc2nc3nonc3nc2Nc2ccc(OC(F)(F)F)cc2)cc1 [Compound 7p]
- MIC (E. coli AR-0493 [1]): >64 µg/mL
- GI50 (HeLa cells): 5.7 µg/mL
- mitochondrial uncoupler activity (mitochondria): poor uncoupler
- MRC (minimum re-sensitizing concentration) (E. coli AR-0493 [2]; listed as 57p): 0.25 µg/mL

Molecule: Colistin [reference compound]
- MIC (E. coli AR-0493 [1]): 16 µg/mL
- Colistin MIC (P. aeruginosa AR-0257; colistin alone): 8 µg/mL
- Colistin MIC (P. aeruginosa AR-0239; colistin alone): 4 µg/mL
- Colistin MIC ([3]; colistin alone, S. Typhimurium AR-0539, mcr-3): 8 µg/mL
- Colistin MIC (E. coli AR-0538; Table 2): 8 µg/mL
- Colistin MIC (E. coli AR-0538; Table 7): 8 µg/mL
- Colistin MIC (K. pneumoniae AR-0497; Table 2): 8 µg/mL
- Colistin MIC (K. pneumoniae AR-0497; Table 7): 8 µg/mL
- Colistin MIC (E. coli AR-0493 [4]; Table 2): 16 µg/mL
- Colistin MIC (E. coli AR-0493 [4]; Table 7): 8 µg/mL
- Colistin MIC (A. baumannii AR-0310; Table 2): 16 µg/mL
- Colistin MIC (A. baumannii AR-0310; Table 7): 32 µg/mL
- Colistin MIC ([5]; S. Typhimurium AR-0635, mcr-4, Table 7): 32 µg/mL
- Colistin MIC ([5]; Salmonella Typhimurium AR-0635, mcr-4, Table 2): 16 µg/mL
- Colistin MIC ([6]; 8 MDR Gram negative strains of Table 7): 4 to 32 µg/mL
- Colistin MIC ([6]; mcr-expressing Enterobacteriaceae strains of Table 2): 8 to 16 µg/mL
- Colistin MIC (E. coli AR-0346): 8 µg/mL
- Colistin MIC (E. coli K-12): 0.25 µg/mL
- Colistin MIC (A. baumannii AR-0300): 8 µg/mL
- Colistin MIC [7]: 16 µg/mL
- Colistin MIC (P. aeruginosa AR-0768): 16 µg/mL
- INT (S-R interpretation) (E. coli AR-0349; CLSI 2021, M100, Ed 31): R
- MIC (E. coli AR-0349; antibiotic alone, multidrug-resistant E. coli): 16 µg/mL
- fold of potentiation (E. coli AR-0349; by 1 μg/mL of compound 3): 16 fold
- MIC (+3) (E. coli AR-0349; in the presence of 1 μg/mL of compound 3): 1 µg/mL

Molecule: Oc1nc2nonc2nc1Nc1ccc(OC(F)(F)F)cc1 [Compound 8p]
- mitochondrial uncoupler activity (mitochondria): one of the most potent uncouplers

Molecule: Clc1ccc(Nc2nc3nonc3nc2Nc2ccc(Cl)cc2)cc1 [Compound 7m]
- MIC (E. coli AR-0493 [1]): >64 µg/mL
- GI50 (HeLa cells): 2.8 µg/mL
- MRC (minimum re-sensitizing concentration) (E. coli AR-0493 [2]): 0.5 µg/mL
- fold reduction of colistin MIC (P. aeruginosa AR-0257): 4 folds
- Colistin MIC (+ compound) (P. aeruginosa AR-0257): 2 µg/mL
- fold reduction of colistin MIC (P. aeruginosa AR-0239): 4 folds
- Colistin MIC (+ compound) (P. aeruginosa AR-0239): 1 µg/mL
- Colistin MIC (+ compound) [3]: 2 µg/mL
- Colistin MIC (+ compound) (E. coli AR-0538): 2 µg/mL
- Colistin MIC (+ compound) (K. pneumoniae AR-0497): 1 µg/mL
- Colistin MIC (+ compound) (E. coli AR-0493 [4]): 1 µg/mL
- Colistin MIC (+ compound) (A. baumannii AR-0310): 0.25 µg/mL
- Colistin MIC (+ compound) [5]: 1 µg/mL

Molecule: Clc1cccc(Nc2nc3nonc3nc2Nc2cccc(Cl)c2)c1 [Compound 7l]
- MIC (E. coli AR-0493 [1]): >64 µg/mL
- GI50 (HeLa cells): 1.1 µg/mL
- MRC (minimum re-sensitizing concentration) (E. coli AR-0493 [2]): 0.25 µg/mL
- fold reduction of colistin MIC (P. aeruginosa AR-0257): 4 folds
- Colistin MIC (+ compound) (P. aeruginosa AR-0257): 2 µg/mL
- fold reduction of colistin MIC (P. aeruginosa AR-0239): 4 folds
- Colistin MIC (+ compound) (P. aeruginosa AR-0239): 1 µg/mL
- Colistin MIC (+ compound) [3]: 1 µg/mL
- Colistin MIC (+ compound) (E. coli AR-0538): 1 µg/mL
- Colistin MIC (+ compound) (K. pneumoniae AR-0497): 1 µg/mL
- Colistin MIC (+ compound) (E. coli AR-0493 [4]): 1 µg/mL
- Colistin MIC (+ compound) (A. baumannii AR-0310): 0.25 µg/mL
- Colistin MIC (+ compound) [5]: 1 µg/mL
